Test results reported in the supplement of paper PMC10307832.

Legend:
Test in all cases: relative viability (nuclei count vs DMSO), 5 days (fraction); higher = more cells survive
KIN001-266 + AZD7762 = compound: CCN1CCC(CC1)N2C=C(N=N2)CNC3=CC4=C(C(=CN=C4C(=C3)Cl)C#N)NC5=CC(=C(C=C5)F)Cl [KIN001-266] + NC(=O)Nc1cc(-c2cccc(F)c2)sc1C(=O)N[C@H]1CCCNC1 [AZD7762] (partner 0.2 µM)
Method in brief: (§1)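 A single step with final 0.05% Triton X-100, 1% formaldehyde and 1 ug/ml Hoechst fixed the cells and stained nuclei 5 days after treatment. Lung cancer cell lines in 1536-well plates had been treated by pin tool the day after seeding with one drug alone or a fixed anchor-drug dose plus five library-drug doses (not always all listed) in √10 steps, and nuclei were counted on 4× images. Relative viability is the ratio of nuclei in treated wells to nuclei in vehicle wells, taken as the median of duplicate plates.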

KIN001-266 + Decitabine = compound: CCN1CCC(CC1)N2C=C(N=N2)CNC3=CC4=C(C(=CN=C4C(=C3)Cl)C#N)NC5=CC(=C(C=C5)F)Cl [KIN001-266] + Nc1ncn([C@H]2C[C@H](O)[C@@H](CO)O2)c(=O)n1 [Decitabine] (partner 2 µM)
Method in brief: as §1

KIN001-266 + Lapatinib = compound: CCN1CCC(CC1)N2C=C(N=N2)CNC3=CC4=C(C(=CN=C4C(=C3)Cl)C#N)NC5=CC(=C(C=C5)F)Cl [KIN001-266] + CS(=O)(=O)CCNCc1ccc(-c2ccc3ncnc(Nc4ccc(OCc5cccc(F)c5)c(Cl)c4)c3c2)o1 [Lapatinib] (partner 2 µM)
Method in brief: as §1

KIN001-266 + Bortezomib = compound: CCN1CCC(CC1)N2C=C(N=N2)CNC3=CC4=C(C(=CN=C4C(=C3)Cl)C#N)NC5=CC(=C(C=C5)F)Cl [KIN001-266] + CC(C)C[C@H](NC(=O)[C@H](Cc1ccccc1)NC(=O)c1cnccn1)B(O)O [Bortezomib] (partner 0.002 µM)
Method in brief: as §1

Cell Line | relative viability (KIN001-266 + AZD7762; first compound 0.08 µM) | relative viability (KIN001-266 + AZD7762; first compound 0.253 µM) | relative viability (KIN001-266 + AZD7762; first compound 0.8 µM) | relative viability (KIN001-266 + AZD7762; first compound 2.53 µM) | relative viability (KIN001-266 + AZD7762; first compound 8 µM) | relative viability (KIN001-266 + Decitabine; first compound 0.08 µM) | relative viability (KIN001-266 + Decitabine; first compound 0.253 µM) | relative viability (KIN001-266 + Decitabine; first compound 0.8 µM) | relative viability (KIN001-266 + Decitabine; first compound 2.53 µM) | relative viability (KIN001-266 + Decitabine; first compound 8 µM) | relative viability (KIN001-266 + Lapatinib; first compound 0.08 µM) | relative viability (KIN001-266 + Lapatinib; first compound 0.253 µM) | relative viability (KIN001-266 + Lapatinib; first compound 0.8 µM) | relative viability (KIN001-266 + Lapatinib; first compound 2.53 µM) | relative viability (KIN001-266 + Lapatinib; first compound 8 µM) | relative viability (KIN001-266 + Bortezomib; first compound 0.08 µM) | relative viability (KIN001-266 + Bortezomib; first compound 0.253 µM) | relative viability (KIN001-266 + Bortezomib; first compound 0.8 µM) | relative viability (KIN001-266 + Bortezomib; first compound 2.53 µM) | relative viability (KIN001-266 + Bortezomib; first compound 8 µM)
NCI-H522 | 0.951 | 0.85 | 0.786 | 0.822 | 0.79 | 0.651 | 0.609 | 0.777 | 0.702 | 0.678 |  |  |  |  |  |  |  |  |  | 
NCI-H661 |  |  |  |  |  | 0.628 | 0.554 | 0.506 | 0.509 | 0.504 | 0.494 | 0.449 | 0.532 | 0.438 | 0.29 | 0.784 | 0.755 | 0.878 | 0.837 | 0.566
NCI-H1299 |  |  |  |  |  |  |  |  |  |  | 0.918 | 0.959 | 0.902 | 0.854 | 0.855 | 1.02 | 1.01 | 0.984 | 0.962 | 0.882
NCI-H1395 | 0.404 | 0.453 | 0.399 | 0.375 | 0.391 | 0.731 | 0.687 | 0.75 | 0.687 | 0.758 | 1.28 | 1.13 | 1.25 | 0.935 | 1.16 |  |  |  |  | 
NCI-H1563 |  |  |  |  |  |  |  |  |  |  | 1.05 | 1.1 | 0.968 | 0.922 | 0.835 | 0.951 | 0.982 | 0.846 | 0.855 | 0.809
NCI-H1648 | 0.721 | 0.713 | 0.518 | 0.572 | 0.669 | 0.487 | 0.497 | 0.501 | 0.507 | 0.517 |  |  |  |  |  |  |  |  |  | 
NCI-H1650 |  |  |  |  |  | 0.396 | 0.43 | 0.426 | 0.544 | 0.388 | 0.881 | 0.873 | 0.826 | 0.641 | 0.42 | 0.241 | 0.203 | 0.191 | 0.214 | 0.19
NCI-H1703 |  |  |  |  | 0.112 |  |  |  |  |  | 1.02 | 0.947 | 1.25 | 0.87 | 0.532 | 0.378 | 0.317 | 0.296 | 0.273 | 0.291
NCI-H1793 | 0.482 | 0.541 |  | 0.276 | 0.376 | 0.574 | 0.463 |  | 0.476 | 0.364 | 0.646 | 0.643 | 0.81 | 0.485 | 0.561 |  |  |  |  | 
NCI-H1944 | 0.579 | 0.544 | 0.401 | 0.46 | 0.394 | 0.421 | 0.459 | 0.401 | 0.415 | 0.393 | 0.826 | 0.895 | 0.774 | 0.816 | 0.828 |  |  |  |  | 
NCI-H2009 |  |  |  |  |  | 0.394 | 0.367 | 0.437 | 0.357 | 0.391 | 0.981 | 1.07 | 0.905 | 0.927 | 0.645 | 1.02 | 1.06 | 1.09 | 0.95 | 0.658
NCI-H2023 |  |  |  |  |  | 0.21 | 0.217 | 0.217 | 0.216 | 0.289 | 0.774 | 0.971 | 1.09 | 0.855 | 0.34 | 1.08 | 1.1 | 1.2 | 1.03 | 0.76
NCI-H2170 | 0.924 | 0.958 | 0.924 | 0.854 | 0.774 | 0.47 | 0.437 | 0.457 | 0.436 | 0.414 | 0.29 | 0.268 | 0.266 | 0.247 | 0.255 |  |  |  |  | 
NCI-H2228 |  |  |  |  |  |  |  |  |  |  | 1.06 | 1.04 | 0.883 | 0.834 | 0.882 | 1.03 | 0.935 | 1.09 | 1.33 | 0.796
NCI-H2342 | 0.559 | 0.492 | 0.451 | 0.431 | 0.545 | 0.693 | 0.762 | 0.662 | 0.872 | 0.817 |  |  |  |  |  |  |  |  |  | 
SK-LU-1 |  |  |  |  |  | 0.718 | 0.623 | 0.615 | 0.552 | 0.478 | 0.932 | 0.862 | 0.817 | 0.64 | 0.613 | 1.39 | 1.14 | 1.31 | 1.12 | 1.04
SK-MES-1 |  |  |  |  |  | 0.383 | 0.37 | 0.386 | 0.391 | 0.433 | 0.47 | 0.522 | 0.414 | 0.405 | 0.418 |  |  |  |  | 
SW 900 | 0.639 | 0.601 | 0.527 | 0.522 | 0.327 | 0.733 | 0.448 | 0.463 | 0.427 | 0.343 |  |  |  |  |  |  |  |  |  | 
SW 1573 |  |  |  |  |  | 0.504 | 0.447 | 0.699 | 0.427 | 0.429 | 1.09 | 1.13 | 1.11 | 0.88 | 1.04 | 1.13 | 0.914 | 1.09 | 0.92 | 0.808
UMC-11 |  |  |  |  |  | 0.646 | 0.576 | 0.698 | 0.66 | 0.603 | 1.08 | 1.04 | 1.13 | 0.848 | 0.79 | 0.703 | 0.543 | 0.71 | 0.638 | 0.738
